Earlier results, collected in patent publication US20050158403A1, “Preparation of chinese herbal composite recipe used in horticulture” (priority 2004, published 2005).

Assays:
Shigella = conditions: 1% matrine; in vitro
E. Coli = conditions: 1% matrine; in vitro
Proteus = conditions: 1% matrine; in vitro
B-streptococcus = conditions: 1% matrine; in vitro
Staphylococcus aureaus = conditions: 1% matrine; in vitro

In the case of discorea saponin, the effect to bacteria (bacteria) is listed as “but no effect to bacteria”.
In the case of `O=C1CCC[C@@H]2[C@H]3CCCN4CCC[C@@H](CN12)[C@@H]34` [matrine], the bacteria inhibition effects (Shigella) is given as “bacteria inhibition effects”, the bacteria inhibition effects (E. Coli) is given as “bacteria inhibition effects” and the bacteria inhibition effects (Proteus) is given as “bacteria inhibition effects”. The bacteria inhibition effects (B-streptococcus) was “bacteria inhibition effects” and the bacteria inhibition effects (Staphylococcus aureaus) was “bacteria inhibition effects”.
For `CC[C@@H]1[C@H]2CCCCN3[C@H]2[C@H](C[C@H]3[C@@H]2C[C@H](C)C(=O)O2)[C@@H]2[C@H]1OC(=O)[C@H]2C` [tuberostemonine], the “effect on Ascarid” value (Ascarid) is given as “tuberostemonine can paralyze”.
